Assay results reported in patent US10696686B2, “Herbicidally active (alkynyl-phenyl)-substituted cyclic dione compounds and derivatives thereof” (Syngenta Limited, priority 2013, dated 2020).
Read-outs that look alike come from different tables or passages of the source.

Tests used:
Format in all cases: in vivo
[1] = system: Amaranthus retroflexus (AMARE); assay: Biological Example 1A glasshouse assay, post-emergence application; settings: 312 h, read-out: Percentage phytotoxicity AMARE
Outline: (§1)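 Glasshouse spray test: herbicide in acetone/water (50:50) + 0.5% Tween 20, applied pre-emergence (1 d after sowing) or post-emergence (8 d), sandy soil. Injury scored visually, 0–100%, at 13 DAA.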

[2] = system: Zea mays (ZEAMX, corn, maize, e.g. volunteer corn); assay: as above; settings: Zea mays, 312 h, post-emergence, read-out: Percentage phytotoxicity ZEAMX
Outline: as §1

[3] = system: Echinochloa crus-galli (ECHCG); assay: as above; settings: 312 h, read-out: Percentage phytotoxicity ECHCG
Outline: as §1

Setaria faberi (SETFA) = assay: as above; settings: Setaria faberi, 312 h, post-emergence, read-out: Percentage phytotoxicity SETFA
Outline: as §1

[4] = system: Abutilon theophrasti (ABUTH); assay: as above; settings: 312 h, read-out: Percentage phytotoxicity ABUTH
Outline: as §1

[5] = system: Digitaria sanguinalis (DIGSA); assay: Biological Example 3 glasshouse assay using various adjuvant systems, post-emergence foliar spray; settings: 8 g/ha
Method: Post-emergence foliar spray application, 200 L/ha, usually one or two replicates for the weeds (depending on application rate), and two replicates for soybean.
Standard warm conditions (tropical), in glasshouse. Specifically, the glasshouse bay conditions are 24° C./18° C. day/night; 16/8 hours light/dark; 65% humidity.
The herbicidal application takes place at the following growth stages for plants which include inter alia one or more of the following plants (usually the herbicidal application takes place on at least the following plants: DIGSA, ELEIN, SETFA, ZEAMX, GLXMA Nikko, and GLXMA TMG133, and often also either BRADC or BRAPP):
Digitaria sanguinalis (DIGSA)—growth stage 12 or 13
Each test compound is applied with one of the following adjuvant systems (all percentages are final concentrations in the aqueous spray mixture):
Adjuvant system 1: 0.5% v/v Adigor™ *, 1.0% v/v AMS (ammonium sulphate) and 12.5% v/v IPA (isopropyl alcohol).
Adjuvant system 1A: 0.5% v/v Adigor™ * and 12.5% v/v IPA (isopropyl alcohol).
CAS Registry no. […] A visual assessment of the % herbicidal damage is made 7 and 14 Days After herbicide Application (DAA) (or, in a minority of cases, 7 and 15 DAA), and the results are recorded as % visual herbicidal damage where 0%=no damage to plants and 100%=plant totally killed. *** Adjuvant system=either Adigor™ or Hexamoll DINCH™ or tris-(2-ethylhexyl) phosphate each at 0.5% v/v, and 12.5% v/v IPA (isopropyl alcohol), and 1.0% v/v AMS (ammonium sulphate); or 0.5% v/v Adigor™ and 12.5% v/v IPA (isopropyl alcohol); all percentages are final concentrations in the aqueous spray mixture. […]
The percentages of herbicidal damage/plant control, at 14 Days After herbicide Application (DAA) (or, in a minority of cases, at 15 DAA), for the Compounds tested and for some of the plants tested, were in the following percentage ranges. […] Phytotoxicity on Glycine max (GLXMA, Soybean) Cultivar “TMG133” Glycine max (GLXMA, soybean) cultivar “TMG133” is Roundup Ready™ glyphosate-tolerant soybean cultivar TMG133, and is typically available from Monsanto in Brazil. […]

[6] = 30 g/ha, 13 days after application
[7] = 250 g/ha, 13 days after application

`CC#Cc1cc(F)c(C2C(=O)CC(CCSC)CC2=O)c(OC)c1` (stereo not shown) [Compound A11] was tested, and the pest or weed control at 30 g/ha [1, 6] was 30%, the pest or weed control at 250 g/ha [1, 7] was 50% and the pest or weed control at 30 g/ha [2, 6] was 20%. The pest or weed control at 250 g/ha [2, 7] was 20%, the pest or weed control at 30 g/ha [3, 6] was 0% and the pest or weed control at 250 g/ha [3, 7] was 10%. The pest or weed control at 30 g/ha (Setaria faberi (SETFA); [6]) was 30%, the pest or weed control at 250 g/ha (Setaria faberi (SETFA); [7]) was 60% and the pest or weed control at 30 g/ha [4, 6] was 0%. For the same compound, the pest or weed control at 250 g/ha [4, 7] was 10% and the “percentage control of Digitaria sanguinalis (DIGSA)” value ([5]; 14 DAA (A11: 14 or 15 DAA), adjuvant 0.5% v/v Adigor + 1.0% v/v AMS + 12.5% v/v IPA) was 0%.
`C#CCC1CC(=O)C(c2c(F)cc(C#CC)cc2OC)C1=O` (stereo not shown) [Compound A8, 2-(2-fluoro-6-methoxy-4-prop-1-ynyl-phenyl)-4-prop-2-ynyl-cyclopentane-1,3-dione] was tested, and the pest or weed control at 30 g/ha [1] was 0%, the pest or weed control at 250 g/ha [1] was 0% and the pest or weed control at 30 g/ha [2] was 100%. For the same compound, the pest or weed control at 250 g/ha [2] was 100%, the pest or weed control at 30 g/ha [3] was 100% and the pest or weed control at 250 g/ha [3] was 100%. The pest or weed control at 30 g/ha (Setaria faberi (SETFA)) was 80%, the pest or weed control at 250 g/ha (Setaria faberi (SETFA)) was 100% and the pest or weed control at 30 g/ha [4] was 0%. For the same compound, the pest or weed control at 250 g/ha [4] was 70% and the “percentage control of (phytotoxicity on) Digitaria sanguinalis (DIGSA)” value ([5]; 14 DAA, adjuvant 0.5% v/v Adigor + 12.5% v/v IPA) was 65%.
